Our source for the IC50 values is PubChem BioAssay AID504313 (Emory University Molecular Libraries Screening Center, 2011).

pIC50: −log10 of the molar value. Activity calls are given as the source filed them. No rule for the calls is given here. Some results are limits rather than exact numbers.

The target of the experiment is X-box-binding protein 1 (Homo sapiens) (UniProt P17861). The experiment in a line: XBP1 reporter suppression in cells – counter-screen, dose response (AID 504313).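 Also: CHO cells carrying an XBP1 reporter stimulated with tunicamycin; potency is for inhibition of the tunicamycin-induced reporter signal.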 As to conditions: XBP1 reporter cell assay, percent of control. On the technique in general: Counterscreens check selectivity or assay interference.
As for `Cn1cnc([N+](=O)[O-])c1S(=O)(=O)c1cccc(Cl)c1`, the IC50 (usually the concentration needed to halve the response being measured) is “inactive”.
As for `CC(C)(C)c1ccc(C(=O)NNC(=O)c2cccc(Br)c2)cc1`, the IC50 is > 10 µM (inactive).
Take `CC1CCC(C(C)C)C(OCC(O)CN2CCN(Cc3ccccc3)CC2)C1` (stereo not drawn): the IC50 is > 10 µM (inactive).
In the case of `O=c1c(Cl)c(Cl)cnn1Cc1nnc(-c2ccccc2Br)o1`, the IC50 entry is “inactive”.
`Cc1nc(Nc2nc(CSc3nc4ccccc4[nH]3)cc(=O)[nH]2)nc2ccccc12`: the IC50 was > 10 µM (inactive).
For the molecule `CCCOc1ccccc1C1CC(=O)NC(C)=C1C(=O)OCC(C)C` (stereo not drawn), the IC50 entry is “inactive”.
With `CC1CCC(n2c(=S)[nH]c3ccccc3c2=O)CC1` (stereo not drawn), the IC50 is > 10 µM (inactive).
With `CC1C/C(=C/c2ccccn2)C(=O)/C(=C/c2ccccn2)C1` (stereo not drawn), the pIC50 (in general, the negative decadic logarithm of the IC50, by convention in mol/L) was 5.57.
With `COc1ccc(-c2nn(-c3ccccc3)cc2/C=N/N2C(=O)CSC2=S)cc1`, the IC50 was > 10 µM (inactive).
Same read-out and setting: in the case of `FC(F)(F)c1cccc(Sc2nc(-c3ccccc3)nnc2C(F)(F)F)c1` it was “inactive”.
Take `O=C1/C(=C/c2ccncc2)SC(=S)N1C1CCS(=O)(=O)C1` (stereo not drawn): the IC50 result was “inactive”.
Still for that read-out and setting: as for `Oc1cccc(-c2nc3c4c(ncn3n2)-c2ccccc2CC42CCCC2)c1`, the figure is > 10 µM (inactive); as for `O=C(NNc1ccccc1Br)C(O)(c1cccc(C(F)(F)F)c1)c1cccc(C(F)(F)F)c1`, “inactive”.
Regarding `O=C(Nc1ccc(Br)c(C(F)(F)F)c1)c1ccc(C(F)(F)F)cc1`, the pIC50 is 5.26.
Take `CC(C)C[C@H](NC(=O)c1[nH]cnc1C(=O)N[C@@H](C)C(=O)OC(C)(C)C)C(=O)OC(C)(C)C`: the pIC50 was 5.57.
Consider `CN1CCN(CC(=O)N2CCn3c4c(c5cc(C6CCCCC6)ccc53)CCCC42)CC1` (stereo not drawn), for which the IC50 is > 10 µM (inactive).
Take `Cc1ccccc1/C=N/Nc1ccnc2cc(Cl)ccc12`: the IC50 was > 10 µM (inactive).
For the molecule `C[C@H]1C[C@@H](C)C(=O)[C@@H]([C@H](O)CC2CC(=O)NC(=O)C2)C1`, the pIC50 is 6.68.
For the molecule `Cc1cc(Cl)ccc1OCc1n[nH]c(=S)n1C1CCCCC1`, the IC50 entry was “inactive”.
In the case of `Cc1ccc(N(c2ncnc(N)c2[N+](=O)[O-])C2CCCCC2)cc1`, the IC50 was > 10 µM (inactive).
On the same count and under the same terms, in the case of `CCOc1cc(S(=O)(=O)Nc2ccc(CC)cc2)ccc1Cl` it was “inactive”.
Consider `O=C(NCc1nc(-c2ccc(C(F)(F)F)cc2)no1)Nc1ccc(OC(F)(F)F)cc1`, for which the negative-log IC50 (pIC50) was 5.37.
The same measure, in the same setting: in the case of `O=Nc1ccc(O)c2ncccc12` it was 5.29.
Regarding `CCc1ccc(-c2nc(CN3CCC(C(=O)NCCN(CC)c4ccccc4)CC3)c(C)o2)cc1`, the IC50 is > 10 µM (inactive).
Same read-out and setting: in the case of `CC(C)C[C@H](NC(=O)c1[nH]cnc1C(=O)Nc1ccccc1)C(=O)OC(C)(C)C` it was “inactive”.
For the molecule `CC(C)=CCc1c(O)cc2oc3c(CC=C(C)C)c(O)c(O)c(CC=C(C)C)c3c(=O)c2c1O`, the negative-log IC50 (pIC50) was 5.28.
Take `O=c1cc(-c2c(F)c(F)c(F)c(F)c2F)oc2c(F)c(F)c(F)c(F)c12`: the negative logarithm of the IC50 (pIC50) is 5.33.
Consider `COc1ccc(NC(=O)/C(Cl)=C(/Cl)S(=O)Cc2ccccc2Cl)cn1` (stereo not drawn), for which the pIC50 is 6.04.
As for `NS(=O)(=O)c1ccc(N/N=C2/CCCCC2C2CCCCC2)c([N+](=O)[O-])c1` (stereo not drawn), the negative logarithm of the IC50 (pIC50) was 5.35.
For the molecule `Cc1ccc(N2C(=O)NC(=O)/C(=C\C=C\c3ccco3)C2=O)cc1C`, the IC50 was > 10 µM (inactive).
As to `Cc1ccc(-c2nc(N)sc2-c2ccc(C)cc2)cc1`, the IC50 was > 10 µM (inactive).
For `NC(=O)CC(NC(=O)Cc1cccc2ccccc12)c1ccc(NCc2cc(F)ccc2F)c([N+](=O)[O-])c1` (stereo not drawn), the IC50 is > 10 µM (inactive).
On the same count and under the same terms, in the case of `CCOc1cc(/C=N/NC(=O)COc2cccc(C)c2)ccc1OC(=O)c1cccs1` it was > 10 µM (inactive); in that of `O=C(Nc1ccccc1)C1=C(c2ccccc2)S(=O)(=O)CCS1(=O)=O`, “inactive”.
Still for that read-out and setting: as for `CCCOC(=O)c1ccc(Oc2cn[nH]c2-c2ccc(OCC)cc2O)cc1`, the entry is “inactive”; as for `CCOC(=O)COc1ccccc1/C=C\[N+](=O)[O-]`, “inactive”.
Take `CCN1C=CC(=C2C(=O)c3ccccc3C2=O)C=C1`: the IC50 entry is “inactive”.
Consider `CCOC(=O)Cc1csc(NC(=O)NC2(C(F)(F)F)Oc3cc(Cl)c(Cl)cc3O2)n1`, for which the IC50 entry is “inactive”.
`CCCCCCN=C(CC)c1c(O)n(CCCC)c(=O)[nH]c1=O`: the IC50 entry was “inactive”.
The same measure, in the same setting: in the case of `Cc1cc(C(C)(C)C)oc1C(=O)N1CCN(C(=O)c2oc(C(C)(C)C)cc2C)CC1` it was > 10 µM (inactive).
Turning to `COC(=O)C[C@]1(C(=O)OC)CN(C#N)N(c2ccc(Cl)cc2)C12c1ccccc1-c1ccccc12`, the pIC50 was 5.36.
As for `Nc1nnnn1/N=C/C(Br)=C/c1ccccc1`, the IC50 was > 10 µM (inactive).
The same measure, in the same setting: in the case of `CCCCCCCCCCCCCCCC[n+]1cccc2ccccc21` it was < 0.16 µM (inactive); in that of `C=CCOC(=O)C1=C(C)NC(SCC(=O)Nc2nccs2)=C(C#N)C1c1ccc(Cl)cc1` (stereo not drawn), > 10 µM (inactive).
In the case of `Cc1cc(/C=N/n2cnnc2)c(C)n1-c1ccc(OCc2ccccc2F)cc1`, the pIC50 was 5.31.
For `CN(CCCC[C@H](CNCc1ccc(-c2ccccc2)cc1)N1C[C@H](c2ccccc2)N(CCc2ccc(Cl)c(Cl)c2)C(=O)C1=O)Cc1ccc(-c2ccccc2)cc1`, the IC50 result was “inactive”.
Turning to `CCC(C)(C)c1ccc(Oc2ccc(N)cc2)cc1`, the pIC50 was over 6.80.
Same read-out and setting: in the case of `O=C(OCn1ncc(Cl)c(Cl)c1=O)c1ccc(F)cc1` it was 5.43; in that of `CCN1/C(=C\C=C\C2=[N+](CC)c3ccccc3C2(C)C)C(C)(C)c2ccccc21`, over 6.80.
With `CCOc1ccc(N2C(=O)/C(=C\c3ccc(O)c(OC)c3)S(=O)(=O)C2c2cccc([N+](=O)[O-])c2)cc1` (stereo not drawn), the IC50 was > 10 µM (inactive).
In the case of `CN(C)c1ccc(/C=C/c2ccc3c4ccccc4ccc3[n+]2-c2ccccc2)cc1`, the pIC50 is 5.64.
For the molecule `O=C(O)c1ccc(N/N=C/c2ccc3nccnc3c2)cc1`, the pIC50 was 5.74.
For the molecule `C/C(=N\N=C1\NC(=O)C(CC(=O)Nc2ccc(C)c(Cl)c2)S1)C(C)(C)C` (stereo not drawn), the pIC50 is 5.30.
As to `COc1ccc(CC2(CO)CCN(CC3=Cc4cc(Cl)ccc4OC3)CC2)cc1`, the negative-log IC50 (pIC50) is 5.57.
For the molecule `COc1c(CC=C(C)C)cc(C2CC(=O)c3c(O)cc(O)cc3O2)cc1CC=C(C)C` (stereo not drawn), the IC50 result was “inactive”.
On the same count and under the same terms, in the case of `OC(CNCCc1ccc(C(F)(F)F)cc1)COc1cccc2ccccc12` (stereo not drawn) it was < 0.16 µM (inactive).
On to `O=C(OCn1ncc(Br)c(Br)c1=O)c1c(F)cccc1F`, for which the pIC50 is 5.51.
In the case of `Fc1ccc(Nc2nc(NCc3ccco3)c3ccccc3n2)cc1`, the IC50 was > 10 µM (inactive).
Turning to `CCc1ccc(/C=c2\s/c(=C\C(=O)C(C)(C)C)[nH]c2=O)cc1`, the IC50 result is “inactive”.
Consider `CC[n+]1c(/C=C2\Sc3ccccc3N2C)ccc2cccc(C)c21`, for which the pIC50 was 6.62.
Consider `O=C1C=CC(O)(c2cc(=O)c3c(O)cc(O)cc3o2)C=C1`, for which the negative-log IC50 (pIC50) was 5.42.
On to `CC(=O)C1=C(S(=O)(=O)c2ccc(C)cc2)CS(=O)(=O)C1`, for which the IC50 was > 10 µM (inactive).
On the same count and under the same terms, as for `NC(=O)c1cc(-c2ccccc2)nc(N2CCCCCC2)n1`, the entry is “inactive”; as for `FC(F)(F)c1cccc(CN2CCC(c3cc(-c4cccs4)n[nH]3)CC2)c1`, > 10 µM (inactive).
On the same count and under the same terms, as for `O=C1C=CC(=O)N1N(c1ccccc1)c1ccccc1`, the figure is > 10 µM (inactive); as for `Cc1cccc(/C=C2/S/C(=N/N=C3\CC4CCC3(C)C4(C)C)NC2=O)c1` (stereo not drawn), “inactive”.
For `Cc1cccc(N2CCN(C(=O)c3c(C)nn(Cc4ccccc4Cl)c3C)CC2)c1C`, the IC50 was > 10 µM (inactive).
The same measure, in the same setting: in the case of `O=C(NNc1ccccc1[N+](=O)[O-])Nc1ccc(Cl)c(Cl)c1` it was > 10 µM (inactive).
`COc1cccc(NC(=O)CSc2nnc(-c3cc(C)n(-c4ccccc4)c3C)o2)c1`: the negative logarithm of the IC50 (pIC50) was 6.39.
Still for that read-out and setting: as for `CC(C)(C)C1C/C(=C/c2ccccn2)C(=O)/C(=C/c2ccccn2)C1` (stereo not drawn), the figure is 6.26; as for `CCC(NC(=O)Nc1nnc(C(F)(F)F)s1)(C(F)(F)F)C(F)(F)F`, 5.70.
Regarding `CCc1ccc(OCC(=O)NC(NC(=S)Nc2ccccc2)C(Cl)(Cl)Cl)cc1` (stereo not drawn), the IC50 is > 10 µM (inactive).
The same measure, in the same setting: as for `CC[C@@H]1CC=C[C@H]2[C@H]1C(=O)N(Cc1ccccc1)[C@H]2c1ccoc1`, the entry is “inactive”; as for `Cc1ccc(NC(=O)NC(=O)CN2C(=O)NC3(CCCCCCC3)C2=O)c(C)c1`, > 10 µM (inactive); as for `COc1ccc(/C=N\NC(=O)COc2ccc(C(C)(C)C)cc2)cc1Cn1nc(C)cc1C`, “inactive”.
As for `COC(=O)c1c(NC(=O)Nc2ccc(Cl)cc2)sc(C)c1C`, the IC50 was > 10 µM (inactive).
As for `CC(=O)NCc1ccc(C(=O)CCl)s1`, the IC50 result was “inactive”.
The same measure, in the same setting: in the case of `O=C(Nc1ccc(-c2nc3ccccc3o2)cc1)c1ccc(N2CCOCC2)c([N+](=O)[O-])c1` it was > 10 µM (inactive).
`CC(C)CCn1c(=O)c(C(=O)N/N=C/c2cccc(F)c2)c(O)c2ccccc21`: the pIC50 is 5.46.
Same read-out and setting: in the case of `COC(=O)/C(=C1/Oc2cc(C)oc(=O)c2S1)C(F)(F)F` it was 5.53.
With `COc1ccc(-c2nn(-c3ccccc3)cc2/C=N/NC(=O)c2ccc(Br)o2)cc1`, the IC50 entry is “inactive”.
Turning to `CCSc1nc2ccccc2n1C(=O)/C=C/c1ccc(OC)c(OC)c1`, the negative logarithm of the IC50 (pIC50) was 5.32.
In the case of `O=C(CN1CCN(c2ncc(C(F)(F)F)cc2Cl)CC1)NCCNc1ncc(C(F)(F)F)cc1Cl`, the IC50 result was “inactive”.
On to `O=C(NC(c1ccccc1)c1cc(Cl)c2cccnc2c1O)c1cccnc1` (stereo not drawn), for which the IC50 result is “inactive”.
For `CC1CCc2cc(F)ccc2N1C(=O)CSc1nnc2c(n1)[nH]c1ccc(F)cc12` (stereo not drawn), the IC50 is > 10 µM (inactive).
On the same count and under the same terms, as for `O=C(Nc1cccc(Cl)c1Cl)c1cc(S(=O)(=O)NCCc2ccccc2)ccc1F`, the entry is “inactive”.
On the same count and under the same terms, as for `CCOc1ccc(/C=N/NC(=O)c2cc(-c3ccco3)nc3ccccc23)cc1`, the entry is “inactive”.
Consider `CCCCc1ccc(NC(=S)Nc2ccc(Cl)c(S(=O)(=O)N(C)C)c2)cc1`, for which the IC50 was > 10 µM (inactive).
